Measured values taken from paper PMC5522078, “Discovery and characterization of small molecules targeting the DNA-binding ETS domain of ERG in prostate cancer” (Oncotarget, 2017).

Tests used:
[1] = molecular target: T1, ETS domain of ETV4 (Homo sapiens, UniProt P43268); assay: Preliminary NMR spectroscopic experiments, ETV4; format: binding
T1 sequence (P43268 341-421 limits assumed): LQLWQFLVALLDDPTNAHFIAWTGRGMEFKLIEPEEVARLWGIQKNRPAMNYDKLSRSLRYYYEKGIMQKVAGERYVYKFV

[2] = molecular target: T2, ERG (Homo sapiens, UniProt P11308); assay: ERG protein stability, Western blot after cycloheximide; format: cell-based; settings: VCaP cells
T2 construct: VCaP (endogenous overexpression); endogenous in cells; host or cells: VCaP (whole cells for A2 and A17; nuclear extract for A16)
T2 sequence (P11308 33-479 limits assumed): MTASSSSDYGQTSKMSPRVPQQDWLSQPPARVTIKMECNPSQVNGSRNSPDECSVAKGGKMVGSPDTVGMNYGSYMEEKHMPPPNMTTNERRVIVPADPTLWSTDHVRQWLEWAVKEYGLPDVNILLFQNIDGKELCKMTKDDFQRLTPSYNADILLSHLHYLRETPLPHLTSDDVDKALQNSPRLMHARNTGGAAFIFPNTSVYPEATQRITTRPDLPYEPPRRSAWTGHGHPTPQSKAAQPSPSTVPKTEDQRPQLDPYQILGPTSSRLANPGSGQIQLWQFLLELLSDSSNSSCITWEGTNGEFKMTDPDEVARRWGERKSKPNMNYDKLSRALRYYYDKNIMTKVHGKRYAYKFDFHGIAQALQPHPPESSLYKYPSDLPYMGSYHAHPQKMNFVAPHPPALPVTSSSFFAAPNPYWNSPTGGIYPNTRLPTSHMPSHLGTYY
Procedure: Cells were lysed on ice with RIPA buffer containing a protease inhibitor cocktail (Pierce). Primary antibodies: ERG (1:1,000, EPR3864(2), Abcam), α-Tubulin (1:20,000, Millipore), Vinculin (1:1,000, Abcam). Immunoreactivity was detected with the use of the goat anti-rabbit or rabbit anti-mouse horseradish peroxidase (HPR)–conjugated secondary antibody (1:10,000) (Santa Cruz), and visualization was achieved by chemiluminescence (Pierce). To inhibit protein synthesis, 10 μM cycloheximide was added for 1 h and then replaced with treatment medium for indicated time frame.

[3] = test system: RWPE-ERG cells; assay: Real time cell migration (xCELLigence), RWPE-ERG; format: cell-based; settings: 5 µM; compared to MOCK control
Procedure: Cell migration was monitored using CIM-16 migration plates via the xCELLigence platform (ACEA). FBS-supplemented media (160 μL) was added to the lower chamber of the plate and incubated at RT for 30 min. The upper chamber was then mounted and 30 μL of serum free media (SFM) was added to each well and left to equilibrate in the incubator for 1 h at 37°C. After the incubation, a background reading was taken for each well. […] Real time readings of cell index values were recorded initially every 5 min until the end of the experiment (48 hr). page 8: Supplementary Figure 4: VPC-18005 suppresses migration, but not growth of RWPE-1-ERG cells. (A) Cell viability (MTS) of ERG-expressing cells (RWPE-ERG) (closed circle) and non-ERG expressing cells (RWPE-MOCK (open square)) after treatment […] Impact on viability is presented as the mean ± SEM […] (B) RWPE-1-Mock or (C) […] The normalized cell index is a measure of the migration of the cells through the pores of the upper chamber and is used as the migration index. Dotted lines represent 1 standard deviation (SD) of the mean migration rate.

[4] = Murine pharmacodynamics and toxicology studies; format: in vivo, mice
Procedure: Supplementary Figure 10: (A) In a preliminary study to evaluate in vivo toxicity and establish working oral (PO) doses, Nu/nu mice (n = 4) received a single PO dose of VPC-18005 (100 mg/kg or 500 mg/kg) dissolved in cyclodextrin. Blood was collected directly after injection and at the times indicated. Serum concentration of VPC-18005 was determined for each time point. (B) In a 4 week “repeated dose” study, body weight was measured daily for mice (n = 4) that received a daily dose of VPC-18005 (150 mg/kg BID) dissolved 50% ethanol (PO) or 50% ethanol (Vehicle). Change in weight of each animal was normalized to starting pretreatment weight. (C) Cytotoxicity serum markers of vehicle and VPC-18005 treated animals described in B) were determined and presented as average (Avg. Conc.) and standard deviation (SD) with corresponding paired t-test p values. LC-MS analysis of serum indicators of major organ toxicity (albumin (ALB), alkaline phosphatase (ALP) and alanine aminotransferase (ALT) as indicators of liver dysfunction, amylase (AMY) to test for acute pancreatitis, total bilirubin (TBIL) to assess jaundice, and blood urea nitrogen (BUN) to assess kidney function from endpoint samples

[5] = test system: RWPE-ERG cells; assay: MTS cell viability assay, RWPE-ERG; format: cell-based; settings: increasing concentrations (0.2 to 25 μM), 72 h
Procedure: Twenty four hours later, 100 μL of medium containing vehicle control or compounds. Each treatment was prepared in triplicate. After a 72 h treatment, cellular viability was assessed using CellTiter 96 ® Aqueous One Solution Cell Proliferation Assay reagent (Promega) according to the manufacturer's instructions. Values were normalized to the DMSO control. page 8: Supplementary Figure 4: VPC-18005 suppresses migration, but not growth of RWPE-1-ERG cells. (A) Cell viability (MTS) of ERG-expressing cells (RWPE-ERG) (closed circle) and non-ERG expressing cells (RWPE-MOCK (open square)) after treatment […] Impact on viability is presented as the mean ± SEM […] (B) RWPE-1-Mock or (C) […] The normalized cell index is a measure of the migration of the cells through the pores of the upper chamber and is used as the migration index. Dotted lines represent 1 standard deviation (SD) of the mean migration rate.

[6] = molecular target: T3, ERG-DNA complex (Homo sapiens, UniProt P11308); assay: EMSA with VCaP nuclear lysate; format: binding; settings: 55 ng/μl nuclear extract, 4 μM to 8 mM
T3 construct: VCaP (endogenous overexpression); endogenous in cells; host or cells: VCaP (whole cells for A2 and A17; nuclear extract for A16)
T3 sequence (P11308 33-479 limits assumed): T2 sequence (P11308 33-479 limits assumed)
Procedure: For experiments involving ERG from VCaP cells, VCaP nuclear protein was extracted using CelLytic NuCLEAR Extraction Kit (Sigma). […] For subsequent assays, 55 ng/μl of the nuclear extract was mixed with 1 nM of fluorophore-labeled dsDNA, titrated with VPC-18005 (diluted from a DMSO stock) and analyzed by the same EMSA protocol.

[7] = test system: PC3 cells; set-up: method as in PMID 21559405; settings: read-out: IC50 for cytotoxicity in PC3 cells; cited from earlier work

Row | Compound | Interaction with the ETS domain of ETV4 [1] | ERG protein degradation, 4 h ([2]; cycloheximide pre-treatment, up to 50 μM for 4 h) | ERG protein degradation, 24 and 48 h ([2]; cycloheximide, 24 and 48 h) | Effect on RWPE-ERG cell migration [3] | Solubility, stability and oral bioavailability in mice ([4]; Nu/nu mice, PO) | Serum indicators of major organ toxicity (ALB, ALP, ALT, AMY, TBIL, BUN) ([4]; mice, 150 mg/kg BID, 4 weeks, endpoint samples) | General toxicity, repeated dose ([4]; mice, 4 week BID at 150 mg/kg PO) | General toxicity, single dose ([4]; mice, single doses of up to 500 mg/kg PO) | Effect on cell viability (MTS), RWPE cells overexpressing ERG [5] | Disruption of ERG-DNA complex formation, VCaP nuclear lysate [6] | IC50 [7]
1 | CC(C)c1ccc(C=N/N=C2\NC(=O)[C@@H](CC(=O)O)S2)cc1 (stereo in doubt) [VPC-18005, 2-((Z)-2-(((Z)-4-isopropylbenzylidene)hydrazono)-4-oxothiazolidin-5-yl)acetic acid] | interacts | did not induce ERG degradation | no observable ERG protein degradation | moderate effect | soluble, stable and orally bioavailable | no significant impact | does not exhibit general toxicity | does not exhibit general toxicity | No effect on cell viability | disrupted ERG-DNA complex formation | 
2 | COc1ccc(C(=O)CC2(O)C(=O)Nc3c(Cl)ccc(Cl)c32)cc1 (centres unmarked) [YK-4-279, reference compound] |  |  |  |  |  |  |  |  |  |  | > 100 µM
